One series relates to W1L2 cells. The series is described as follows: Growth inhibition of W1L2 in presence of folate metabolites (dThd/HX). As to conditions: in the presence of 10 μM thymidine (dThd) and 50 μM hypoxantine (HX), read-out: Inhibition of Cell Growth IC50, W1L2 + dThd/HX (C). It is filed as cell-based, human. The method, then:
Growth inhibition assays as described above were performed in W1L2 cells where compounds were incubated in the presence of 10 μM thymidine (dThd) and 50 μM hypoxantine (HX) (purchased from Sigma Chemical Co.).

In a further series the test system is W1L2:R865 cell line. Nature of the series: Growth inhibition of W1L2:R865 cells (acquired resistance to CB 30865). The class given is cell-based, human. On the procedure:
A cell line was raised with acquired resistance to CB 30865, denoted W1L2:R865, by stepwise selection over ˜9 months.
The generated W1L2:R865 cell line was routinely cultured in 0.03 μm CB 30865 under the same conditions as W1L2 cells, with cells being grown in the absence of CB 30865 for ˜2 weeks before an experiment.
The activity of compounds against W1L2:R865 cells was determined within parallel experiments by 72 h growth inhibition assay (Coulter counts). CB 30865 was included in every experiment as an internal control.

Series [1] has as its system W1L2 human lymphoblastoid cells. Nature of the series: Growth inhibition of W1L2 cells. The class given is cell-based. As to conditions: W1L2 suspension cells, read-out: Inhibition of Cell Growth IC50, W1L2 (B).
The subject of the next series is W1L2:C1 cells. The series is described as follows: Growth inhibition of W1L2:C1 cells (elevated TS). The class given is cell-based, human. As to conditions: read-out: Inhibition of Cell Growth IC50, W1L2:C1 (B). The method, then:
W1L2 human lymphoblastoid, W1L2:C1 (elevated TS; O'Connor et al, Cancer Res, 52, 1137-1143 (1992)) and L1210 mouse leukaemia cells were cultured in suspension and A2780, PXN94, 41M, HX62, SKOV3 (human ovarian carcinoma), MCF-7 (human breast carcinoma), HT29 and SW480 (human colon carcinoma) cell lines were grown as monolayers as described in Jackman et al, Cancer Res, 50, 5212-5218 (1990) and Jackman et al, Br. J. Cancer, 71, 914-924 (1995).
Growth inhibition studies with suspension cells were performed as described in Jackman et al, Cancer Res, 50, 5212-5218 (1990). Activity against the adherent cell lines was assessed by MTT assay (Twentyman et al, Br. J. Cancer, 56, 279-285 (1987)) where cells were seeded in 96-well plates at 1000-3000 cells per well, incubated overnight and then exposed to the appropriate drug concentrations for 96-120 h.

Series [2] deals with mouse thymidylate synthase (TS) (Mus musculus, UniProt P07607). The series is described as follows: Inhibition of L1210 thymidylate synthase (TS).
mouse thymidylate synthase (TS), sequence (P07607 whole entry): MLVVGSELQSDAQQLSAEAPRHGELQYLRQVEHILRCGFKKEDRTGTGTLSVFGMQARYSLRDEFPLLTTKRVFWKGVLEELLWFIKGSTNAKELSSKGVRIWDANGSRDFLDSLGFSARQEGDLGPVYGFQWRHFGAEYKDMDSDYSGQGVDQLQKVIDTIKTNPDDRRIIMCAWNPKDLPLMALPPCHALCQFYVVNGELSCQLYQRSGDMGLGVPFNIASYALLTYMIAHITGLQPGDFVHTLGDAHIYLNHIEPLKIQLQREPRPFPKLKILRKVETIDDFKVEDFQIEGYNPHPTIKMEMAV
The mark [3] stands for this setting: 72 h growth inhibition assay (Coulter counts), read-out: Inhibition of Cell Growth IC50, W1L2:R865 (D).
The mark [4] stands for this setting: Homo sapiens, Lymphoblastoid cell.
Where [5] appears, read: Homo sapiens, 72 h, read-out: Inhibition of Cell Growth IC50, W1L2:R865 (D), 72 h growth inhibition assay (Coulter counts).
The mark [6] stands for this setting: read-out: Inhibition of Cell Growth IC50, W1L2:R865 (D), 72 h growth inhibition assay (Coulter counts).
Where [7] appears, read: Homo sapiens, 72 h growth inhibition assay (Coulter counts), read-out: Inhibition of Cell Growth IC50, W1L2:R865 (D).

The structures appear in SMILES notation. “And” between values parts separate entries of the source, which are not always exact repeats. Equal entries are not always repeated. Where two headings read alike, the source gives them in different places.

Take `C#CCN(Cc1cc2c(=O)n(C)c(CN3CCC[C@H]3C(=O)OC)nc2cc1Cl)c1ccc(C(=O)NCc2cccnc2)cc1` [CB300928, 4-[N-[7-Chloro-3-methyl-2-(methyl-L-prolin-1-yl)methyl-4-oxo-3,4-dihydroquinazolin-6-ylmethyl]-N-(prop-2-ynyl)amino]-N-(3-pyridylmethyl)benzamide]: the IC50 with W1L2 cells is 14 nM and 7.6 nM; in the series on W1L2:R865 cell line (setting [3]) it was 24000 nM and 19000 nM.

`C#CCN(Cc1cc2c(=O)n(CCN(C)C)c(CN3CCCCC3)nc2cc1Cl)c1ccc(C(=O)NCc2cccnc2)cc1` [CB300933, 4-[N-[7-Chloro-3-(2-dimethylaminoethyl)-4-oxo-2-piperidin-1-ylmethyl-3,4-dihydroquinazolin-6-ylmethyl]-N-(prop-2-ynyl)amino]-N-(3-pyridylmethyl)benzamide] displayed a melting point of 90 to 93 °C. The IC50 in series [1] (setting [4]) was 2.9 nM. Also, the IC50 with W1L2:C1 cells (Homo sapiens) is 2.8 nM. Besides, in the series with W1L2:R865 cell line (setting [5]), the IC50 came out at 7200 nM.

`C#CCN(Cc1cc2c(=O)n(C)c(CN3CCN(C)CC3)nc2cc1Cl)c1ccc(C(=O)NCCCn2ccnc2)cc1` [CB300929, 4-[N-[7-Chloro-3-methyl-2-(4-methyl-piperazin-1-yl)methyl-4-oxo-3,4-dihydroquinazolin-6-ylmethyl]-N-(prop-2-ynyl)amino]-N-[3-(1H-imidazol-1-yl)propyl)benzamide] gave a melting point above 115 °C. The IC50 in series [1] (setting [4]) was determined as 2.1 nM. Further, in series [1], the IC50 was found to be 2.2 nM. Further, the IC50 in the series with W1L2:C1 cells (Homo sapiens) was found to be 2.3 nM. The IC50 in the series with W1L2:C1 cells worked out at 2.2 nM. In addition, the IC50 in the series on W1L2:R865 cell line (setting [5]) was 18000 nM. For the same compound, the IC50 in the series on W1L2:R865 cell line (setting [6]) turned out to be 14000 nM.

With `C#CCN(Cc1cc2c(=O)n(C)c(CN3CCCCC3)nc2cc1Cl)c1ccc(C(=O)NCCCn2cncn2)cc1` [CB300942], the IC50 in series [1] was above 500 nM; with W1L2:C1 cells, above 500 nM; in the series on W1L2:R865 cell line (setting [3]), 20000 nM.

In turn, `C#CCN(Cc1cc2c(=O)n(CC(=O)N(CC)CC)c(CN3CCCCC3)nc2cc1Cl)c1ccc(C(=O)NCc2cccnc2)cc1` [CB300941, 4-[N-[7-Chloro-3-diethylcarbamoylmethyl-4-oxo-2-(piperidin-1-yl)methyl-3,4-dihydroquinazolin-6-ylmethyl]-N-(prop-2-ynyl)amino]-N-(3-pyridylmethyl)benzamide] had a melting point above 105 °C. Moreover, the IC50 in series [1] (setting [4]) was 9.4 nM. In the series on W1L2:C1 cells (Homo sapiens), the IC50 was 8.4 nM. Besides, the IC50 in the series on W1L2:R865 cell line (setting [5]) was 19000 nM.

Turning to `C#CCN(Cc1cc2c(=O)n(CC(=O)N3CCCCC3)c(CN3CCCCC3)nc2cc1Cl)c1ccc(C(=O)NCc2cccnc2)cc1` [CB300938, 4-[N-[7-Chloro-4-oxo-2-(piperidin-1-yl)methyl-3-piperidinocarbonylmethyl-3,4-dihydroquinazolin-6-ylmethyl]-N-(prop-2-ynyl)amino]-N-(3-pyridylmethyl)benzamide], the melting point fell in the range of 128 to 130 °C. Moreover, in series [1] (setting [4]), the IC50 amounted to 8.4 nM. The IC50 in the series with W1L2:C1 cells (Homo sapiens) came to 7.4 nM. In addition, in the series with W1L2:R865 cell line (setting [5]), the IC50 is above 50000 nM.

`C#CCN(Cc1cc2c(=O)n(C)c(CN3CCN(c4ccccc4)CC3)nc2cc1Cl)c1ccc(C(=O)NCc2cccnc2)cc1` [CB300934, 4-[N-[7-Chloro-3-methyl-4-oxo-2-(4-phenylpiperazin-1-yl)methyl-3,4-dihydroquinazolin-6-ylmethyl]-N-(prop-2-ynyl)amino]-N-(3-pyridylmethyl)benzamide]: the melting point lay in the range of 214 to 216 °C. Also, in series [1] (setting [4]), the IC50 turned out to be 7.2 nM. Also, the IC50 with W1L2:C1 cells (Homo sapiens) is 5.4 nM. The IC50 in the series on W1L2:R865 cell line (setting [5]) amounted to 940 nM.

Take `C#CCN(c1ccc(C(=O)NCc2cccnc2)cc1)C1CCc2cc3cc(C)n(C)c(=O)c3cc21` (centres unmarked) [CB300847, reference compound]: the figures for the IC50 (in series [1] (setting [4]); in the series on W1L2:C1 cells (Homo sapiens); with W1L2:R865 cell line (setting [7])) were 6.5 ± 1.7 nM, 2.7 nM and 2500 nM, respectively.

Consider `C#CCN(Cc1cc2c(=O)n(CC(=O)OC)c(CN3CCCCC3)nc2cc1Cl)c1ccc(C(=O)NCc2cccnc2)cc1` [CB300931, 4-[N-[7-Chloro-3-methoxycarbonylmethyl-4-oxo-2-piperidin-1-ylmethyl-3,4-dihydroquinazolin-6-ylmethyl]-N-(prop-2-ynyl)amino]-N-(3-pyridylmethyl)benzamide], for which the melting point was 214 to 216 °C. The IC50 in series [1] (setting [4]) stood at 11 nM. Besides, in the series on W1L2:C1 cells (Homo sapiens), the IC50 was 9.6 nM. In the series with W1L2:R865 cell line (setting [5]), the IC50 was 23000 nM.

For `C#CCN(Cc1cc2c(=O)n(C)c(CN3CCC(O)CC3)nc2cc1Cl)c1ccc(C(=O)NCc2cccnc2)cc1` [CB300939, 4-[N-[7-Chloro3-methyl-2-(4-hydroxypiperidin-1-yl)methyl-4-oxo-3,4-dihydroquinazolin-6ylmethyl]-N-(prop-2-ynyl)amino]-N-(3-pyridylmethyl)benzamide], the IC50 in series [1] (setting [4]) came out at 0.72 nM; in the series on W1L2:C1 cells (Homo sapiens), 0.7 nM; in the series on W1L2:R865 cell line (setting [5]), 18000 nM.

In the case of `C#CCN(Cc1cc2c(=O)n(C)c(CN3CCCC3)nc2cc1Cl)c1ccc(C(=O)NCc2cccnc2)cc1` [CB300926, 4-[N-[7-Chloro-3-methyl-2-pyrrolidinomethyl-4-oxo-3,4-dihydroquinazolin-6-ylmethyl]-N-(prop-2-ynyl)amino]-N-(3-pyridylmethyl)benzamide], the IC50 in series [1] (setting [4]) was 0.7 nM; in series [1], 0.74 nM; with W1L2 cells (Homo sapiens), 0.76 nM; in the series on W1L2:R865 cell line (setting [5]) it was 24000 nM.

For `C#CCN(Cc1cc2c(=O)n(C)c(CN3CCOCC3)nc2cc1Cl)c1ccc(C(=O)NCc2cccnc2)cc1` [CB300925, 4-[N-[7-Chloro-3-methyl-2-morpholinomethyl-4-oxo-3,4-dihydroquinazolin-6-ylmethyl]-N-(prop-2-ynyl)amino]-N-(3-pyridylmethyl)benzamide], the melting point was above 145 °C. Further, the IC50 in series [1] (setting [4]) was 2 ± 0.36 nM. Also, the IC50 in the series on W1L2:R865 cell line (setting [5]) is 19000 nM.

With `C#CCN(Cc1cc2c(=O)n(C)c(CN3CCN(C)CC3)nc2cc1Cl)c1ccc(C(=O)NCc2cccnc2)cc1` [CB300921, 4-[N-[7-Chloro-3-methyl-2-(4-methyl-piperazin-1-yl)methyl-4-oxo-3,4-dihydroquinazolin-6-ylmethyl]-N-(prop-2-ynyl)amino]-N-(3-pyridylmethyl)benzamide], the IC50 in series [1] (setting [4]) was 0.65 ± 0.15 nM; in the series on W1L2:C1 cells, 0.62 nM and 0.54 nM; in the series with W1L2:R865 cell line (setting [5]) it was above 10000 nM.

With `C#CCN(Cc1cc2c(=O)n(C)c(CN3CCCCC3)nc2cc1Cl)c1ccc(C(=O)NCc2cccnc2)cc1` [CB300923, 4-[N-[7-Chloro-3-methyl-4-oxo-2-piperidinomethyl-3,4-dihydroquinazolin-6-ylmethyl]-N-(prop-2-ynyl)amino]-N-(3-pyridylmethyl)benzamide], the melting point lay within 148 to 150 °C. Further, the IC50 in series [1] (setting [4]) came to 0.8 nM. The IC50 in the series with W1L2 cells (Homo sapiens) came out at 0.78 nM. For the same compound, the IC50 with W1L2:R865 cell line (setting [5]) is 14000 nM. Moreover, the “Inhibition of L1210 TS (A) IRP* (inverse relative potency)” value in series [2] is on record as above 4211.

On to `C#CCN(Cc1cc2c(=O)n(C)c(CN3CCN(CCO)CC3)nc2cc1Cl)c1ccc(C(=O)NCc2cccnc2)cc1` [CB300930, 4-[N-[7-Chloro-3-methyl-2-(4-(2-hydroxyethyl)-piperazin-1-yl)methyl-4-oxo-3,4-dihydroquinazolin-6-ylmethyl]-N-(prop-2-ynyl)amino]-N-(3-pyridylmethyl)benzamide], for which the melting point fell in the range of 115 to 117 °C. For the same compound, the IC50 in the series with W1L2:R865 cell line (setting [5]) is 22000 nM. Also, the IC50 in the series on W1L2:R865 cell line (setting [6]) is 19000 nM.

`CN(c1ccc(C(=O)NCc2cccnc2)cc1)C1CCc2cc3nc(CN4CCCCC4)n(C)c(=O)c3cc21` (centres unmarked) [CB300943]: the IC50 in series [1] (setting [4]) was 28 nM; in the series on W1L2:C1 cells (Homo sapiens), 26 nM; in the series with W1L2:R865 cell line (setting [7]), above 500 nM.

Turning to `C#CCN(Cc1cc2c(=O)n(C)c(CN3CCN(CC)CC3)nc2cc1Cl)c1ccc(C(=O)NCc2cccnc2)cc1` [CB300927, 4-[N-[7-Chloro-3-methyl-2-(4-ethyl-piperazin-1-yl)methyl-4-oxo-3,4-dihydroquinazolin-6-ylmethyl]-N-(prop-2-ynyl)amino]-N-(3-yridylmethyl)benzamide], the IC50 was 0.78 nM and 0.8 nM in series [1]; 0.78 nM and 0.76 nM in the series on W1L2 cells; 22000 nM and 20000 nM in the series with W1L2:R865 cell line (setting [3]).

By melting point is commonly meant the temperature, or range, at which the solid turns liquid.

For the origin of these results see US6699861B1, “Anti-quinazoline compounds” (Cancer Research Technology Limited, priority 1999, dated 2004).
